Like-named read-outs stand apart in the source and are kept apart here.
How the values were obtained:
fecal bile acids = assay: Fecal bile acid excretion, ascending multiple oral doses of LUM001 in healthy adults; format: in vivo, human
Procedure: This Phase 1 study was a randomized, double-blind, placebo-controlled study of ascending multiple oral doses of LUM001 in healthy, adult subjects. This study was conducted at a single center. There were 13 LUM001 dosing panels: 10, 20, 60, 100, and 20 mg every morning (qAM) (2) (i.e., the regimen was tested a second time in the study), 5 mg every evening (qPM), 0.5, 1, 2.5, 5, 2.5 (2), 5 (2), and 0.5 to 5 mg qAM dose titration. Most of the dosing panels included subjects treated with matching placebo. No subject participated in more than 1 dosing panel. Subjects were randomized into the study by dosing panel, and all subjects within a dosing panel received study medication at approximately the same time each day. Safety was reviewed for each panel before subsequent panels were initiated. A total of 167 subjects were treated for 28 days, 147 with LUM001 and 20 with placebo.
During the Pretreatment Screening Period (Days −31 through −4), subjects were seen on an outpatient basis to determine study eligibility based on enrollment criteria. On Day −3, eligible subjects were admitted to the research facility during the morning. Subjects were confined to the research facility from Days −3 to 30. During the entire period of confinement to the research facility, subjects received a study diet composed of 35% of caloric intake from fat, 15% from protein, and 50% from carbohydrates. The total daily caloric intake (based on the subject's weight) was fixed and divided into 3 equicaloric equal-fat-containing meals. The fixed fat composition and caloric content of the diet was designed to reduce inter- and intra-subject variability of serum total bile acids (SBA) and FBA, lipid parameters, and fat absorption parameters.
On Day 1 of the Treatment Period, subjects who qualified for enrollment were randomized in the order in which they were admitted to the research facility. On the same day, subjects began receiving study medication. Subsequent analyses included clinical and laboratory safety assessments and profiles of PK, PD, and lipid parameters. The safety and tolerability of LUM001 were evaluated by physical examination, ascertainment of adverse signs and symptoms, and clinical laboratory studies. Blood and urine samples were obtained for measurement of LUM001 plasma, whole blood, and urine concentrations for subsequent PK analyses. Efficacy responses included measuring FBA as a surrogate marker for the inhibition of intestinal bile acid transport. For the qAM dosing panels, LUM001 or placebo was administered each day of the treatment period (28 days) immediately prior to the morning meal at approximately 08:00 and after any necessary blood work was drawn.
Fecal samples were collected for all panels except the dose-titration panel, 2.5 (2) and 5 mg (2), on Days 9 through 14 and 23 through 28 (data shown in FIG. 6; *p<0.05; **p<0.01 compared to placebo). Twenty-four hour FBA excretions were quantified by Pharmacia for Days 9 through 14 and 23 through 28. Feces were collected in a 24-hour collection container beginning at 08:00 and ending 24 hours later. This procedure was followed on Days 9 through 14 and 23 through 28, with new collection containers issued for each 24-hour period. The weight of each 24-hour fecal collection was recorded on the CRFs. Specimens were stored in 24-hour containers, frozen at approximately −80° C. prior to analysis.
An aliquot for each 24-hour fecal sample collected on Days 23 through 28 was combined, homogenized, and analyzed for bile acid species concentrations by ANAPHARM. The fecal bile acid species evaluated include chenodeoxycholic acid, cholic acid, deoxycholic acid, and lithocholic acid.

[1] = Pharmacokinetics of LUM001 after oral gavage in rats; format: in vivo; settings: both sexes, Sprague Dawley, rat, plasma; for bioavailability: read-out: BA (bioavailability); for AUC(0-t): read-out: AUC(0-8 h)
Procedure: Groups of fasted Sprague Dawley rats (n=6/sex/group) were administered LUM001 as a single oral solution dose of either 1, 5 or 30 mg LUM001 free form/kg. The dose of 5 mg LUM001 free form/kg was also administered to rats in a fed state to evaluate the effect of food on plasma concentrations of LUM001 free form. Since LUM001 is a chloride salt, 105% of the amount of LUM001 is required to deliver the stated dose of the free form. The oral dose was delivered to the rat in Tween 80Milli-Q water (0.2% Tween, v/v) and was prepared on the day of dosing.
Blood samples of approximately 1 mL (n=2/sex/timepoint/treatment group) were collected by retro-orbital bleed into chilled tubes containing heparin at timepoints 0 (predose), 0.25, 0.5, 1, 1.5, 2, 3, 5 and 8 hours. The plasma samples were prepared by centrifugation of blood within 30 minutes after sample collection. All samples were stored at −20° C.±5° C. until analysis to study the relative exposures of LUM001 free form after oral solution dosing. The concentration of LUM001 free form in plasma were determined using an LCMSMS method. The assay sensitivity was 2.38 ng/mL.
Means and standard errors of the means (SEM) were calculated for plasma concentrations at each time point. Mean values are significant to three figures and SEM values are significant to the same decimal place as the corresponding mean. Concentration values less than the assay sensitivity (2.38 ng LUM001 free form/mL) were reported as zero. The area under the plasma concentration-time curve (AUC) was calculated from time 0 to 8 hours using a non-compartmental model in WinNonlin (1). The bioavailability (% BA) of LUM001 after oral administration of LUM001 was calculated according to the equation below:
% BA=[AUC oral (0-8)/AUC IV(0-8)/Dose oral/Dose IV]×100.

[2] = 5 mg/kg, single oral gavage 5 mg/kg free form, fasted
[3] = 5 mg/kg, single oral gavage 5 mg/kg free form, fed
[4] = 30 mg/kg, single oral gavage 30 mg/kg free form, fasted

For `CCCCC1(CCCC)CS(=O)(=O)c2ccc(N(C)C)cc2[C@@H](c2ccc(OCc3ccc(C[N+]45CCN(CC4)CC5)cc3)cc2)[C@H]1O` [LUM001], which “Mean Daily Total Fecal Bile Acids Excretion” value (fecal bile acids; 0.5 mg (n=16), Days 9-14) is on record?
The value was 266.8 μmole/24 hr.

And the “Mean Daily Total Fecal Bile Acids Excretion” value (fecal bile acids; 0.5 mg (n=16), Days 23-28)?
The value was 294.9 μmole/24 hr.

What about the “Mean Daily Total Fecal Bile Acids Excretion” value (fecal bile acids; 1.0 mg (n=8), Days 9-14) of the same compound?
Its value is 642.7 μmole/24 hr.

What about the “Mean Daily Total Fecal Bile Acids Excretion” value (fecal bile acids; 1.0 mg (n=8), Days 23-28) of the same compound?
The value was 780.3 μmole/24 hr.

And the “Mean Daily Total Fecal Bile Acids Excretion” value (fecal bile acids; 2.5 mg (n=8), Days 9-14)?
The value was 478.0 μmole/24 hr.

What about the “Mean Daily Total Fecal Bile Acids Excretion” value (fecal bile acids; 2.5 mg (n=8), Days 23-28) of the same compound?
Its value is 590.7 μmole/24 hr.

And the “Mean Daily Total Fecal Bile Acids Excretion” value (fecal bile acids; 5 mg (n=8), Days 9-14)?
Its value is 1105.1 μmole/24 hr.

And the “Mean Daily Total Fecal Bile Acids Excretion” value (fecal bile acids; 5 mg (n=8), Days 23-28)?
Its value is 848.4 μmole/24 hr.

And the “Mean Daily Total Fecal Bile Acids Excretion” value (fecal bile acids; 5 mg qPM (n=15), Days 9-14)?
The value was 496.9 μmole/24 hr.

What about the “Mean Daily Total Fecal Bile Acids Excretion” value (fecal bile acids; 5 mg qPM (n=15), Days 23-28) of the same compound?
The value was 593.3 μmole/24 hr.

What about the “Mean Daily Total Fecal Bile Acids Excretion” value (fecal bile acids; 10 mg (n=8), Days 9-14) of the same compound?
Its value is 1237.0 μmole/24 hr.

What about the “Mean Daily Total Fecal Bile Acids Excretion” value (fecal bile acids; 10 mg (n=8), Days 23-28) of the same compound?
Its value is 1126.0 μmole/24 hr.

And the “Mean Daily Total Fecal Bile Acids Excretion” value (fecal bile acids; 20 mg (n=16), Days 9-14)?
The value was 902.9 μmole/24 hr.

What about the “Mean Daily Total Fecal Bile Acids Excretion” value (fecal bile acids; 20 mg (n=16), Days 23-28) of the same compound?
Its value is 865.2 μmole/24 hr.

What about the “Mean Daily Total Fecal Bile Acids Excretion” value (fecal bile acids; 60 mg (n=8), Days 9-14) of the same compound?
The value was 973.4 μmole/24 hr.

What about the “Mean Daily Total Fecal Bile Acids Excretion” value (fecal bile acids; 60 mg (n=8), Days 23-28) of the same compound?
The value was 964.5 μmole/24 hr.

What about the “Mean Daily Total Fecal Bile Acids Excretion” value (fecal bile acids; 100 mg (n=8), Days 9-14) of the same compound?
The value was 2405.7 μmole/24 hr.

What about the “Mean Daily Total Fecal Bile Acids Excretion” value (fecal bile acids; 100 mg (n=8), Days 23-28) of the same compound?
Its value is 1718.3 μmole/24 hr.

And the Fecal Bile Acids (fecal bile acids; healthy adults, multiple oral doses, 28 days)?
Its Fecal Bile Acids is “significant increase in fecal bile acids”.

And the bioavailability ([1]; 1 mg/kg, single oral gavage 1 mg/kg free form, fasted)?
The bioavailability was < 0.1%.

And the Cmax [1, 2]?
The Cmax was 2.45 ng/mL.

What about the Tmax [1, 2] of the same compound?
The Tmax was 60 min.

And the AUC(0-t) [1, 2]?
The AUC(0-t) was 6.58 ng·h/mL.

And the bioavailability [1, 2]?
The bioavailability was 0.1%.

What about the Cmax [1, 3] of the same compound?
Its Cmax is 3.58 ng/mL.

And the Tmax [1, 3]?
Its Tmax is 15 min.

What about the AUC(0-t) [1, 3] of the same compound?
Its AUC(0-t) is 12.6 ng·h/mL.

What about the bioavailability [1, 3] of the same compound?
The bioavailability was 0.2%.

And the Cmax [1, 4]?
The Cmax was 5.43 ng/mL.

And the Tmax [1, 4]?
Its Tmax is 30 min.

What about the AUC(0-t) [1, 4] of the same compound?
Its AUC(0-t) is 4.16 ng·h/mL.

What about the bioavailability [1, 4] of the same compound?
The bioavailability was < 0.1%.
